Results published in patent US8318762B2, “Pyrazolospiroketone acetyl-CoA carboxylase inhibitors” (Pfizer Inc., priority 2008, dated 2012).

biological target: T1, recombinant human ACC2 (Homo sapiens, UniProt O00763); test: Measurement of human ACC2 inhibition (recombinant hACC2 Transcreener ADP detection FP assay); type: biochemical; settings: not given
T1 construct: a full length Cytomax clone of ACC2 was purchased from Cambridge Bioscience Limited; made in house; host or cells: CHO cells (tetracycline induction, pcDNA5 FRT TO-TOPO); purified on a Softlink Soft Release Avidin column
T1 sequence (O00763 whole entry): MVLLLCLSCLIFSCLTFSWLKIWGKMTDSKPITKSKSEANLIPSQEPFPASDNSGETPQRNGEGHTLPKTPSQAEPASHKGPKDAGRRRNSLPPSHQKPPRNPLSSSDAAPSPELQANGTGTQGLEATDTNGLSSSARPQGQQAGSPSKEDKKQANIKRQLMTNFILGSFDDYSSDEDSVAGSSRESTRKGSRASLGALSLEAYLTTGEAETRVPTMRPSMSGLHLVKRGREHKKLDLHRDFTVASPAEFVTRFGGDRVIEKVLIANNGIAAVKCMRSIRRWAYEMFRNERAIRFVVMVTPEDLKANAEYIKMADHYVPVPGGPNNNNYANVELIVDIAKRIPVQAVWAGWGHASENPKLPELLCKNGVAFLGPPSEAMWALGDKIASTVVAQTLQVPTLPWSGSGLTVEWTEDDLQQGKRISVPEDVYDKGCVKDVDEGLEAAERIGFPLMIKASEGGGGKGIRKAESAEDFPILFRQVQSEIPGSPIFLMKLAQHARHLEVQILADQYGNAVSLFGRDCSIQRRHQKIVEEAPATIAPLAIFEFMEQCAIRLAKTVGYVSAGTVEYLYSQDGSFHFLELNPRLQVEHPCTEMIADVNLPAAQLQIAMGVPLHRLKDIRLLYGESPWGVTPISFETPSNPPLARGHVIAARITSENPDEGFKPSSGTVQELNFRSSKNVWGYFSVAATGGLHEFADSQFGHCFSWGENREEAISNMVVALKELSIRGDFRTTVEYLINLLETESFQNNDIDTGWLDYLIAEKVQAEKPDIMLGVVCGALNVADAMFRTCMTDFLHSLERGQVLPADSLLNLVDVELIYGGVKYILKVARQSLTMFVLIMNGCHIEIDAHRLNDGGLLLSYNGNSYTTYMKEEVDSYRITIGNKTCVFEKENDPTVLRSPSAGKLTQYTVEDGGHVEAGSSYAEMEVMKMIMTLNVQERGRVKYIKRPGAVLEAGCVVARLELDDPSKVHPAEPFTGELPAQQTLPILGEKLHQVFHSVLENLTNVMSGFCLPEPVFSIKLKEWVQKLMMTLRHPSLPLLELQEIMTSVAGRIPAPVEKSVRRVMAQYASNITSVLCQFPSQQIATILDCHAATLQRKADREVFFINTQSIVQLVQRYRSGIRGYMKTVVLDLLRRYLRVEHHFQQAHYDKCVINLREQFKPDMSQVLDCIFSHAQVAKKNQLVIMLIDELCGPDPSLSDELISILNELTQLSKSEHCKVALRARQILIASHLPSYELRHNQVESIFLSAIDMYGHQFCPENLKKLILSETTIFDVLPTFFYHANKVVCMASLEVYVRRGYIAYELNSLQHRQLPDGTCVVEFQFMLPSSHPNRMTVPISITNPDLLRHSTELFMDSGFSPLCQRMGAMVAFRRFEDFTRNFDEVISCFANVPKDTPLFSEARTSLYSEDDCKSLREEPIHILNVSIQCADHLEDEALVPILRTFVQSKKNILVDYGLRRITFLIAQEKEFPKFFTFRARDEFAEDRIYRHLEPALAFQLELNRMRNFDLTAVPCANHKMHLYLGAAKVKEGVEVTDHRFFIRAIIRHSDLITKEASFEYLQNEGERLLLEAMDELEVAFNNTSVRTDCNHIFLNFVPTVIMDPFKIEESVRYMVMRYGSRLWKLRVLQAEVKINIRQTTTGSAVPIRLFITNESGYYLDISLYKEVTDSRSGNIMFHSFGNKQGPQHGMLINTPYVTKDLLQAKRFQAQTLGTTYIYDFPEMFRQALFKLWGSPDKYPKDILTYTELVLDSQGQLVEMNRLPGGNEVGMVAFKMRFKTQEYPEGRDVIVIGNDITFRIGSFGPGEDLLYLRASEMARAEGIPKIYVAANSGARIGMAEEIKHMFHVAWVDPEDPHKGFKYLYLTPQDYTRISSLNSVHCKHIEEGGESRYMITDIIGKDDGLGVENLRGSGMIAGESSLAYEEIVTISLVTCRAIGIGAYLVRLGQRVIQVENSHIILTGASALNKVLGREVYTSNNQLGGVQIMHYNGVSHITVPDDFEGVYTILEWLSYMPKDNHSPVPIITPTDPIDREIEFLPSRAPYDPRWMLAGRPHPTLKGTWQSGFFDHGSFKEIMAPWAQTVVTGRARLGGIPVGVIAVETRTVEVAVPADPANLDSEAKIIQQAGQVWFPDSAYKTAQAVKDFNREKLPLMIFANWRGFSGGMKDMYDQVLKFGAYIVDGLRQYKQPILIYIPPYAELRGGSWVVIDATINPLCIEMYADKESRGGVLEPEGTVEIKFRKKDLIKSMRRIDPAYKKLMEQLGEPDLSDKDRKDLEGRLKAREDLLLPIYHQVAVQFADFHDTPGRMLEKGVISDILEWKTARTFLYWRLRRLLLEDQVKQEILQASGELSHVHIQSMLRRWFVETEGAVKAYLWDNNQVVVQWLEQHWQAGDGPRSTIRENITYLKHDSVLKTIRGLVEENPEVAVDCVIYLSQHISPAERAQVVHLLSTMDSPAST
Protocol: [3] Measurement of human ACC2 inhibition. Human ACC2 inhibition was measured using purified recombinant human ACC2 (hrACC2). […] The ACC2 was expressed in CHO cells by tetracycline induction and harvested in 5 liters of DMEM/F12 with glutamine, biotin, hygromycin and blasticidin with 1 μg/mL tetracycline (Invitrogen, Carlsbad, Calif.). The conditioned medium containing ACC2 was then applied to a Softlink Soft Release Avidin column (Promega, Madison, Wis.) and eluted with 5 mM biotin. […] The purified ACC2 was dialyzed in 50 mM Tris, 200 mM NaCl, 4 mM DTT, 2 mM EDTA, and 5% glycerol. […] The final conditions for the assay were 50 mM HEPES, pH7.5, 5 mM MgCl2, 5 mM tripotassium citrate, 2 mM DTT, 0.5 mg/mL BSA, 30 μM acetyl-CoA, 50 μM ATP, and 8 mM KHCO3. Typically, a 10 μl reaction was run for 1 hour at room temperature, and 10 μl of Transcreener stop and detect buffer was added and incubated for an additional 1 hour.

Row | Compound | IC50 [nM]
1 | CCn1nc2c(c1C)OC1(CCN(C(=O)c3cc(C)c4nc[nH]c4c3)CC1)CC2=O [3.005] | 79

same assay, conditions: recombinant hACC2 transcreener assay; read-out: rhACC2 IC50

Row | IC50 [nM] | Compound
2 | 36 | CCc1cc(C(=O)N2CCC3(CC2)CC(=O)c2nn(CC)cc2O3)cc2c(C)n[nH]c12 [1.100]
3 | 45 | CCc1n[nH]c2c(Cl)cc(C(=O)N3CCC4(CC3)CC(=O)c3nn(CC)cc3O4)cc12 [1.101]
4 | 5 | Cc1n[nH]c2c(Cl)cc(C(=O)N3CCC4(CC3)CC(=O)c3nn(C(C)C)cc3O4)cc12 [1.102]
5 | 5 | CC(C)(C)n1cc2c(n1)C(=O)CC1(CCN(C(=O)c3ccc4[nH]nc(Cl)c4c3)CC1)O2 [1.103]
6 | 4 | Cc1cc(C(=O)N2CCC3(CC2)CC(=O)c2nn(C(C)C)cc2O3)cc2c(Cl)n[nH]c12 [1.104]
7 | 2 | Cc1cc(C(=O)N2CCC3(CC2)CC(=O)c2nn(C(C)(C)C)cc2O3)cc2c(Cl)n[nH]c12 [1.105]
8 | 8 | Cc1cc(C(=O)N2CCC3(CC2)CC(=O)c2nn(C4CCC4)cc2O3)cc2c(Cl)n[nH]c12 [1.106]
9 | 3 | Cc1cc(C(=O)N2CCC3(CC2)CC(=O)c2nn(C4CCCC4)cc2O3)cc2c(Cl)n[nH]c12 [1.107]
10 | 19 | CCn1cc2c(n1)C(=O)CC1(CCN(C(=O)c3cc(C)c4[nH]nc(Cl)c4c3)CC1)O2 [1.108]
11 | 12 | CCCn1cc2c(n1)C(=O)CC1(CCN(C(=O)c3cc(C)c4[nH]nc(Cl)c4c3)CC1)O2 [1.109]
12 | 3 | Cc1n[nH]c2c(Cl)cc(C(=O)N3CCC4(CC3)CC(=O)c3nn(C(C)(C)C)cc3O4)cc12 [1.110]
13 | 12 | CCn1nc2c(c1C)OC1(CCN(C(=O)c3cc(Cl)c4[nH]nc(C)c4c3)CC1)CC2=O [1.111]
14 | 79 | CCn1nc2c(c1C)OC1(CCN(C(=O)c3ccc4c(cnn4C)c3)CC1)CC2=O [1.112]
15 | 10 | CCc1cc(C(=O)N2CCC3(CC2)CC(=O)c2nn(CC)c(C)c2O3)cc2c(C)n[nH]c12 [1.113]
16 | 12 | CCOc1cc(C(=O)N2CCC3(CC2)CC(=O)c2nn(CC)cc2O3)cc2c(C)n[nH]c12 [1.115]
17 | 5 | CCOc1cc(C(=O)N2CCC3(CC2)CC(=O)c2nn(C(C)(C)C)cc2O3)cc2c(C)n[nH]c12 [1.116]
18 | 4 | CCOc1cc(C(=O)N2CCC3(CC2)CC(=O)c2nn(C(C)(C)C)cc2O3)cc2c(CC)n[nH]c12 [1.117]
19 | 27 | CCOc1cc(C(=O)N2CCC3(CC2)CC(=O)c2nn(CC)c(C)c2O3)cc2c(C)n[nH]c12 [1.118]
20 | 6 | CCOc1cc(C(=O)N2CCC3(CC2)CC(=O)c2nn(C(C)C)cc2O3)cc2c(C)n[nH]c12 [1.120]
21 | 6 | CCOc1cc(C(=O)N2CCC3(CC2)CC(=O)c2nn(C(C)C)cc2O3)cc2c(CC)n[nH]c12 [1.121]
22 | 5 | CCOc1cc(C(=O)N2CCC3(CC2)CC(=O)c2nn(C(C)C)c(C)c2O3)cc2cn[nH]c12 [1.122]
23 | > 3000 | Cc1c2c(nn1C)C(=O)CC1(CCN(C(=O)c3ccc4c(cnn4C)c3)CC1)O2 [1.124]
24 | 7 | CCc1n[nH]c2c(C)cc(C(=O)N3CCC4(CC3)CC(=O)c3nn(CC)c(C)c3O4)cc12 [1.125]
25 | 3 | Cc1n[nH]c2c(C)cc(C(=O)N3CCC4(CC3)CC(=O)c3nn(C5CCC5)c(C)c3O4)cc12 [1.126]
26 | 20 | COc1cc(C(=O)N2CCC3(CC2)CC(=O)c2nn(C4CCC4)c(C)c2O3)cc2cn[nH]c12 [1.127]

Row | IC50 [nM] | Compound
27 | 8 | Cc1cc(C(=O)N2CCC3(CC2)CC(=O)c2nn(C4CCC4)c(C)c2O3)cc2cn[nH]c12 [1.128]
28 | 5 | Cc1n[nH]c2c(C)cc(C(=O)N3CCC4(CC3)CC(=O)c3nn(CC(C)C)c(C)c3O4)cc12 [1.129]
29 | 13 | Cc1cc(C(=O)N2CCC3(CC2)CC(=O)c2nn(CC(C)C)c(C)c2O3)cc2cn[nH]c12 [1.130]
30 | 19 | COc1cc(C(=O)N2CCC3(CC2)CC(=O)c2nn(CC(C)C)c(C)c2O3)cc2cn[nH]c12 [1.131]
31 | 13 | COc1cc(C(=O)N2CCC3(CC2)CC(=O)c2nn(CC(C)C)c(C)c2O3)cc2c(C)n[nH]c12 [1.132]
32 | 4 | Cc1c2c(nn1C(C)C)C(=O)CC1(CCN(C(=O)c3cc(Cl)c4[nH]ncc4c3)CC1)O2 [1.133]
33 | 10 | Cc1n[nH]c2c(C)cc(C(=O)N3CCC4(CC3)CC(=O)c3nn(CC(C)C)cc3O4)cc12 [1.134]
34 | 2 | CCC(C)n1cc2c(n1)C(=O)CC1(CCN(C(=O)c3cc(C)c4[nH]nc(C)c4c3)CC1)O2 (centres unmarked) [1.140]
35 | 20 | CCC(C)n1cc2c(n1)C(=O)CC1(CCN(C(=O)c3ccc4[nH]ncc4c3)CC1)O2 (centres unmarked) [1.142]
36 | 7 | Cc1n[nH]c2c(C)cc(C(=O)N3CCC4(CC3)CC(=O)c3nn(C5CC5)cc3O4)cc12 [1.143]
37 | 19 | Cc1cc(C(=O)N2CCC3(CC2)CC(=O)c2nn(C4CC4)cc2O3)cc2cn[nH]c12 [1.144]
38 | 26 | Cn1ncc2cc(C(=O)N3CCC4(CC3)CC(=O)c3nn(C(C)(C)C)cc3O4)ccc21 [1.145]
39 | 33 | Cc1n[nH]c2cc(C(=O)N3CCC4(CC3)CC(=O)c3nn(C(C)C)cc3O4)ccc12 [2.005]
40 | 13 | CC(C)n1cc2c(n1)C(=O)CC1(CCN(C(=O)c3cc(Cl)c4cn[nH]c4c3)CC1)O2 [2.006]
41 | 14 | CCc1nn(C)c2cc(C(=O)N3CCC4(CC3)CC(=O)c3nn(C(C)C)cc3O4)ccc12 [2.007]
42 | 81 | CCc1nn(C)c2cc(C(=O)N3CCC4(CC3)CC(=O)c3nn(CC)cc3O4)ccc12 [2.008]
43 | 7 | CC(C)(C)n1cc2c(n1)C(=O)CC1(CCN(C(=O)c3cc(Cl)c4cn[nH]c4c3)CC1)O2 [2.009]
44 | 28 | Cc1n[nH]c2cc(C(=O)N3CCC4(CC3)CC(=O)c3nn(C(C)(C)C)cc3O4)ccc12 [2.010]
45 | 82 | CCn1nc2c(c1C)OC1(CCN(C(=O)c3ccc4cn[nH]c4c3)CC1)CC2=O [2.011]
46 | 7 | CC(C)(C)n1cc2c(n1)C(=O)CC1(CCN(C(=O)c3ccc4cn[nH]c4c3)CC1)O2 [2.012]
47 | 19 | Cn1ncc2ccc(C(=O)N3CCC4(CC3)CC(=O)c3nn(C(C)(C)C)cc3O4)cc21 [2.013]
48 | 28 | CC(C)(C)n1cc2c(n1)C(=O)CC1(CCN(C(=O)c3cc(F)c4cn[nH]c4c3)CC1)O2 [2.014]
49 | 136 | CC(C)n1cc2c(n1)C(=O)CC1(CCN(C(=O)c3cc(F)c4cn[nH]c4c3)CC1)O2 [2.015]
50 | 200 | CCn1nc2c(c1C)OC1(CCN(C(=O)c3cc(F)c4cn[nH]c4c3)CC1)CC2=O [2.016]
51 | 52 | CC(C)(C)n1cc2c(n1)C(=O)CC1(CCN(C(=O)c3ccc4cn[nH]c4c3F)CC1)O2 [2.017]

Row | IC50 [nM] | Compound
52 | 33 | Cc1cc(C(=O)N2CCC3(CC2)CC(=O)c2nn(C(C)(C)C)cc2O3)cc2[nH]ncc12 [2.018]
53 | 27 | COc1c(C(=O)N2CCC3(CC2)CC(=O)c2nn(C(C)(C)C)cc2O3)ccc2cn[nH]c12 [2.020]
54 | 70 | CCn1nc2c(c1C)OC1(CCN(C(=O)c3ccc4cn[nH]c4c3OC)CC1)CC2=O [2.021]
55 | 47 | COc1c(C(=O)N2CCC3(CC2)CC(=O)c2nn(C(C)C)cc2O3)ccc2cn[nH]c12 [2.022]
56 | 3 | COc1cc(C(=O)N2CCC3(CC2)CC(=O)c2nn(C(C)(C)C)cc2O3)cc2[nH]ncc12 [2.023]
57 | 60 | CCn1cc2c(n1)C(=O)CC1(CCN(C(=O)c3ccc4c(C)n[nH]c4c3)CC1)O2 [2.024]
58 | 44 | CCn1nc2c(c1C)OC1(CCN(C(=O)c3ccc4c(C)n[nH]c4c3)CC1)CC2=O [2.025]
59 | 28 | Cc1nc2c(C)cc(C(=O)N3CCC4(CC3)CC(=O)c3nn(C(C)C)cc3O4)cc2[nH]1 [3.001]
60 | 54 | CCn1nc2c(c1C)OC1(CCN(C(=O)c3cc(C)c4nc(C)[nH]c4c3)CC1)CC2=O [3.002]
61 | 111 | CCn1cc2c(n1)C(=O)CC1(CCN(C(=O)c3cc(C)c4nc(C)[nH]c4c3)CC1)O2 [3.004]
62 | 55 | Cc1cc(C(=O)N2CCC3(CC2)CC(=O)c2nn(C4CCC4)cc2O3)cc2[nH]cnc12 [3.006]
63 | 24 | Cc1cc(C(=O)N2CCC3(CC2)CC(=O)c2nn(C(C)C)cc2O3)cc2[nH]cnc12 [3.007]
64 | 6 | Cc1cc(C(=O)N2CCC3(CC2)CC(=O)c2nn(C(C)(C)C)cc2O3)cc2[nH]cnc12 [3.008]
65 | 22 | Cc1cc(C(=O)N2CCC3(CC2)CC(=O)c2nn(C(C)C)cc2O3)cc2c1ncn2C [3.009]
66 | 12 | CC(C)(C)n1cc2c(n1)C(=O)CC1(CCN(C(=O)c3ccc4nc[nH]c4c3)CC1)O2 [3.010]
67 | 15 | Cc1nc2ccc(C(=O)N3CCC4(CC3)CC(=O)c3nn(C(C)(C)C)cc3O4)cc2[nH]1 [3.011]
68 | 129 | Cc1nc2ccc(C(=O)N3CCC4(CC3)CC(=O)c3nn(C(C)C)cc3O4)cc2[nH]1 [3.012]
69 | 211 | CCn1nc2c(c1C)OC1(CCN(C(=O)c3ccc4nc(C)[nH]c4c3)CC1)CC2=O [3.013]
70 | 21 | Cn1cnc2ccc(C(=O)N3CCC4(CC3)CC(=O)c3nn(C(C)(C)C)cc3O4)cc21 [3.014]
71 | 153 | CC(C)n1cc2c(n1)C(=O)CC1(CCN(C(=O)c3ccc4ncn(C)c4c3)CC1)O2 [3.015]
72 | 271 | CCn1nc2c(c1C)OC1(CCN(C(=O)c3ccc4ncn(C)c4c3)CC1)CC2=O [3.016]
73 | 14 | Cc1cc(C(=O)N2CCC3(CC2)CC(=O)c2nn(C(C)C)c(C)c2O3)cc2[nH]cnc12 [3.017]
74 | 105 | CCn1nc2c(c1C)OC1(CCN(C(=O)c3cc(F)c4nc(C)[nH]c4c3)CC1)CC2=O [3.018]
